According to the supplement of paper PMC10307832:

How the values were obtained:
Test in all cases: relative viability (nuclei count vs DMSO), 5 days (fraction); higher = more cells survive
[1] = compound: COc1cc2ncn(-c3cc(OCc4ccccc4C(F)(F)F)c(C(N)=O)s3)c2cc1OC + C[C@]1(O)C[C@@H](c2nc(-c3ccc4ccc(-c5ccccc5)nc4c3)c3c(N)nccn32)C1 [Linsitinib] (partner 1 µM)
In short: (§1)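 For relative viability, nuclei counts in treated wells were divided by those in vehicle wells. Lung cancer cell lines had been pin-tool dosed in 1536-well plates the day after seeding and cultured for 5 days, then fixed and stained in one step (final 0.05% Triton X-100, 1% formaldehyde, 1 ug/ml Hoechst) and imaged at 4×. Doses were one drug alone or a fixed anchor-drug dose plus five library-drug doses (not always all listed) in √10 steps, and values are duplicate-plate medians.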

[2] = compound: COc1cc2ncn(-c3cc(OCc4ccccc4C(F)(F)F)c(C(N)=O)s3)c2cc1OC + O=C(CCCCCCC(=O)Nc1ccccc1)NO [Vorinostat] (partner 1 µM)
In short: as §1

[3] = compound: COc1cc2ncn(-c3cc(OCc4ccccc4C(F)(F)F)c(C(N)=O)s3)c2cc1OC + O=C(c1cc(Cc2n[nH]c(=O)c3ccccc23)ccc1F)N1CCN(C(=O)C2CC2)CC1 [Olaparib] (partner 8 µM)
In short: as §1

[4] = compound: COc1cc2ncn(-c3cc(OCc4ccccc4C(F)(F)F)c(C(N)=O)s3)c2cc1OC + Nc1nc2[nH]cc(CCc3ccc(C(=O)N[C@@H](CCC(=O)O)C(=O)O)cc3)c2c(=O)[nH]1 [Pemetrexed] (partner 0.2 µM)
In short: as §1

| Cell Line | relative viability ([1]; first compound 0.05 µM) | relative viability ([1]; first compound 0.1581 µM) | relative viability ([1]; first compound 0.5 µM) | relative viability ([1]; first compound 1.581 µM) | relative viability ([1]; first compound 5 µM) | relative viability ([2]; first compound 0.05 µM) | relative viability ([2]; first compound 0.1581 µM) | relative viability ([2]; first compound 0.5 µM) | relative viability ([2]; first compound 1.581 µM) | relative viability ([2]; first compound 5 µM) | relative viability ([3]; first compound 0.05 µM) | relative viability ([3]; first compound 0.1581 µM) | relative viability ([3]; first compound 0.5 µM) | relative viability ([3]; first compound 1.581 µM) | relative viability ([3]; first compound 5 µM) | relative viability ([4]; first compound 0.05 µM) | relative viability ([4]; first compound 0.1581 µM) | relative viability ([4]; first compound 0.5 µM) | relative viability ([4]; first compound 1.581 µM) | relative viability ([4]; first compound 5 µM) |
| --- | --- | --- | --- | --- | --- | --- | --- | --- | --- | --- | --- | --- | --- | --- | --- | --- | --- | --- | --- | --- |
| NCI-H2085 | 0.885 | 0.731 | 0.601 | 0.168 | 0.416 | 0.722 | 0.796 | 0.541 | 0.386 | 0.302 | 0.658 | 0.721 | 0.481 | 0.367 | 0.306 | 0.85 | 0.831 | 0.719 | 0.33 | 0.292 |
| NCI-H2087 | 0.995 | 0.981 | 0.307 | 0.168 | 0.195 | 0.639 | 0.573 | 0.163 | 0.0594 | 0.121 | 0.432 | 0.493 | 0.346 | 0.098 | 0.0728 | 0.617 | 0.684 | 0.414 | 0.11 | 0.106 |
| NCI-H2126 | 0.721 | 0.772 | 0.587 | 0.292 | 0.264 | 0.847 | 0.759 | 0.401 | 0.236 | 0.216 | 0.813 | 0.86 | 0.449 | 0.238 | 0.241 | 0.75 | 0.655 | 0.498 | 0.288 | 0.251 |
| NCI-H2228 | 0.525 | 0.52 | 0.253 | 0.176 | 0.231 | 0.283 | 0.575 | 0.196 | 0.111 | 0.104 | 0.224 | 0.721 | 0.201 | 0.157 | 0.194 | 0.329 | 0.352 | 0.265 | 0.153 | 0.238 |
| NCI-H2347 | 0.99 | 0.915 | 0.84 | 0.572 | 0.759 | 0.551 | 0.658 | 0.407 | 0.445 | 0.302 | 0.491 | 0.569 | 0.504 | 0.513 | 0.471 | 0.455 | 0.434 | 0.403 | 0.364 | 0.33 |
| NCI-H2405 | 0.99 | 0.757 | 0.372 | 0.424 | 0.386 | 1.21 | 0.676 | 0.38 | 0.386 | 0.254 | 0.795 | 0.809 | 0.326 | 0.312 | 0.331 | 1.12 | 1.01 | 0.399 | 0.377 | 0.367 |
| NCI-H3122 | 0.943 | 1.07 | 0.256 | 0.184 | 0.221 | 1 | 0.596 | 0.357 | 0.13 | 0.13 | 0.682 | 0.585 | 0.149 | 0.141 | 0.146 | 0.21 | 0.196 | 0.16 | 0.124 | 0.11 |
| PC-3 [JPC-3] | 0.91 | 0.945 | 0.744 | 0.309 | 0.286 | 0.907 | 0.82 | 0.515 | 0.464 | 0.31 | 0.955 | 1.01 | 0.588 | 0.424 | 0.316 | 1.31 | 1.1 | 0.611 | 0.28 | 0.254 |
| PC-14 | 1.05 | 0.906 | 0.463 | – | 0.106 | 0.662 | 0.655 | 0.141 | 0.0309 | 0.0197 | 0.216 | 0.246 | 0.0786 | 0.0384 | 0.0696 | 0.132 | 0.148 | 0.126 | 0.048 | 0.0388 |
| RERF-LC-KJ | 0.806 | 0.901 | 0.559 | – | 0.357 | 0.696 | 0.626 | 0.33 | 0.287 | 0.345 | 0.937 | 0.945 | 0.24 | 0.233 | 0.253 | 0.472 | 0.487 | 0.439 | 0.299 | 0.346 |
| SK-LU-1 | 1.28 | 1.01 | 0.395 | 0.399 | 0.295 | 0.615 | 0.529 | 0.301 | 0.304 | 0.257 | 0.39 | 0.372 | 0.272 | 0.197 | 0.207 | 0.7 | 0.886 | 0.351 | 0.298 | 0.272 |
| SK-MES-1 | 1.03 | 1.01 | 0.745 | – | 0.362 | 1.06 | 1.01 | 0.212 | 0.174 | 0.147 | 0.62 | 0.526 | 0.309 | 0.165 | 0.186 | 0.903 | 0.829 | 0.419 | 0.195 | 0.167 |
| SW 1573 | 0.733 | 0.869 | 0.514 | 0.173 | 0.275 | 0.834 | 0.691 | 0.219 | 0.142 | 0.0957 | 0.442 | 0.428 | 0.188 | 0.103 | 0.119 | 0.839 | 0.742 | 0.594 | 0.149 | 0.136 |
| UMC-11 | 0.962 | 0.912 | 0.274 | 0.152 | 0.136 | 0.283 | 0.22 | 0.136 | 0.131 | 0.104 | 0.313 | 0.293 | 0.21 | 0.185 | 0.159 | 0.619 | 0.599 | 0.201 | 0.191 | 0.201 |
